Where two headings read alike, the source gives them in different places.
What was measured:
TbNT11.1 [1] = molecular target: T1, TbNT11.1 (Trypanosoma brucei brucei, UniProt Q38CR7); type: cell-based; conditions: for TbNT11.1-mediated uptake of radiolabeled substrate: 1 μM [3H]substrate, Δlmant3[pTbNT11] line
TbNT11.1 [2] = molecular target: T1, TbNT11.1; type: cell-based; conditions: for Inhibition of [3H]hypoxanthine uptake by TbNT11.1 (in words): 1 μM [3H]hypoxanthine, graded concentrations of inhibitor; for Inhibition of hypoxanthine uptake by pyrimidine nucleobases: concentrations up to 1 mM; for Inhibition of hypoxanthine uptake by pyrimidine nucleobases / Inhibition of [3H]hypoxanthine uptake by nucleosides: data not shown; for Inhibition of [3H]hypoxanthine uptake by nucleosides: 1 mM nucleoside, Δlmant3[pTbNT11.1] parasites
TbNT11.1 [3] = molecular target: T1, TbNT11.1; type: cell-based; conditions: for Inhibition of [14C]pentamidine uptake by unlabeled nucleobase: 1 mM unlabeled substrate, TbNT11-expressing oocytes
TbNT12.1 [4] = molecular target: T2, TbNT12.1 (Trypanosoma brucei brucei, UniProt Q57TQ7); experiment: Uptake of adenine and pentamidine by TbNT12.1 expressed in Xenopus oocytes; type: cell-based; conditions: for Transport by TbNT12.1 (in words): versus water-injected oocytes
T2 sequence (Q57TQ7 1-462): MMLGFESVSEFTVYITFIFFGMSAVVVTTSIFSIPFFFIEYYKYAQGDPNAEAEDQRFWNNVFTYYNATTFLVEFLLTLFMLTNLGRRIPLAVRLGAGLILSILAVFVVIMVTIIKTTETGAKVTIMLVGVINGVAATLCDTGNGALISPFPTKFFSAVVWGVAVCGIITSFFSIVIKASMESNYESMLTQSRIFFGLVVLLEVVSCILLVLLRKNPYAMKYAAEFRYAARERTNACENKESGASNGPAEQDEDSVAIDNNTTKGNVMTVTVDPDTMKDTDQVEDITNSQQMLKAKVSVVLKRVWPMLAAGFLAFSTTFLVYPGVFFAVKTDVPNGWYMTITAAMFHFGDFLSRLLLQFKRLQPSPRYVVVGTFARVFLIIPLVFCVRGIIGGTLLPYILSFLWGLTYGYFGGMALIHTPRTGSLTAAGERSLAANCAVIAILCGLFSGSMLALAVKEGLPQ

TbNT12.2 [5] = experiment: Uptake of adenine and pentamidine by TbNT12.2 expressed in Xenopus oocytes; type: cell-based, Trypanosoma brucei; conditions: for Transport by TbNT12.2 (in words): Xenopus oocytes, versus water-injected oocytes
TbNT12.1 [6] = molecular target: T2, TbNT12.1; experiment: Adenine uptake by TbNT12.1 expressed in Δlmant3 promastigotes; type: cell-based; conditions: 50 μM adenine, n=3
TbNT12.2 [7] = experiment: Adenine uptake by TbNT12.2 expressed in Δlmant3 promastigotes; type: cell-based, Trypanosoma brucei; conditions: 50 μM adenine, n=3
Δlmant3 parasites = experiment: Background adenine uptake by Δlmant3 parasites; type: cell-based, Leishmania major; conditions: 50 μM adenine
PPT1 = experiment: Inhibition of [14C]pentamidine uptake by PF trypanosomes; type: cell-based, Trypanosoma brucei; conditions: 1 mM nucleobase, 25 μM [14C]pentamidine; data not shown
TbNT11.1 [8] = molecular target: T1, TbNT11.1; experiment: [3H]adenosine uptake by Δldnt1/Δldnt2[pTbNT11.1] line; type: cell-based; conditions: 0.5 μM or 100 μM [3H]adenosine; data not shown
TbNT11.1 [9] = molecular target: T1, TbNT11.1; experiment: Inhibition of [3H]adenine uptake by TbNT11.1 in Δlmant3[pTbNT11.1] parasites; type: cell-based
TbNT11.1 [10] = molecular target: T1, TbNT11.1; type: cell-based; conditions: oocytes expressing TbNT11.1; data not shown
TbNT8.1 = TbNT8.1 (Trypanosoma brucei brucei, UniProt Q386F1); type: cell-based; conditions: 12.5 μM [3H]hypoxanthine
O=c1[nH]cnc2nc[nH]c12 = experiment: cells, lysate or membranes; conditions: other: substrate saturation, 1 min, Δlmant3[pTbNT11.1], n=3
[11] = substrate: N=C(N)c1ccc(OCCCCCOc2ccc(C(=N)N)cc2)cc1; experiment: Uptake of adenine and pentamidine by TbNT12.1 expressed in Xenopus oocytes; type: cell-based, Trypanosoma brucei; conditions: other: Xenopus oocytes, n=3; 16.0 °C
[12] = transport rates linear from 0–1 mM adenine

## Nc1ncnc2[nH]cnc12 [adenine]
TbNT11.1 [1]
  TbNT11.1-mediated uptake of radiolabeled substrate: mediated uptake
TbNT11.1 [2]
  Ki: 8 µM
TbNT11.1 [3]; 50 μM [14C]pentamidine
  Inhibition of [14C]pentamidine uptake by unlabeled nucleobase: very poor inhibitor
TbNT12.1 [4]; Xenopus oocytes
  Transport by TbNT12.1 (in words): transport
TbNT12.1 [4]; [12]
  Affinity of TbNT12.1 for substrate: low
TbNT12.2 [5]
  Transport by TbNT12.2 (in words): transport
TbNT12.2 [5]; [12]
  Affinity of TbNT12.2 for substrate: low
TbNT12.1 [6]
  Uptake of adenine, TbNT12.1 in Δlmant3 promastigotes: 103 ± 2 pmol/min/10^7 parasites
TbNT12.2 [7]
  Uptake of adenine, TbNT12.2 in Δlmant3 promastigotes: 86.5 ± 1.1 pmol/min/10^7 parasites
Δlmant3 parasites
  Background uptake of adenine in Δlmant3 parasites: 41.8 ± 1.4 pmol/min/10^7 parasites
PPT1
  Inhibition of [14C]pentamidine uptake by PFs: did not inhibit

## Nc1ncnc2c1ncn2[C@@H]1O[C@H](CO)[C@@H](O)[C@H]1O [adenosine]
TbNT11.1 [2]
  Inhibition of [3H]hypoxanthine uptake by TbNT11.1 (in words): an inhibitor
TbNT11.1 [8]
  Uptake of [3H]adenosine: did not take up

## Oc1ncnc2[nH]ncc12 [allopurinol, 4-hydroxypyrazolo[3,4-d]-pyrimidine-4-one]
TbNT11.1 [1]
  TbNT11.1-mediated uptake of radiolabeled substrate: promoted uptake
TbNT11.1 [2]
  Ki: 67 µM

## Nc1cc[nH]c(=O)n1 [cytosine]
TbNT11.1 [2]
  Inhibition of hypoxanthine uptake by pyrimidine nucleobases: did not inhibit

## Nc1nc2nc[nH]c2c(=O)[nH]1 [guanine]
TbNT11.1 [1]
  TbNT11.1-mediated uptake of radiolabeled substrate: not a substrate
TbNT11.1 [2]
  Inhibition of [3H]hypoxanthine uptake by TbNT11.1 (in words): an inhibitor
TbNT12.1 [4]; Xenopus oocytes
  Transport by TbNT12.1 (in words): did not mediate the uptake
TbNT12.2 [5]
  Transport by TbNT12.2 (in words): did not mediate the uptake
PPT1
  Inhibition of [14C]pentamidine uptake by PFs: did not inhibit

## Nc1nc2c(ncn2[C@@H]2O[C@H](CO)[C@@H](O)[C@H]2O)c(=O)[nH]1 [guanosine]
TbNT11.1 [2]
  Inhibition of [3H]hypoxanthine uptake by nucleosides: failure

## O=c1[nH]cnc2nc[nH]c12 [hypoxanthine]
TbNT11.1 [1]
  TbNT11.1-mediated uptake of radiolabeled substrate: mediated uptake
TbNT11.1 [3]; 50 μM [14C]pentamidine
  Inhibition of [14C]pentamidine uptake by unlabeled nucleobase: partially inhibited
TbNT12.1 [4]; Xenopus oocytes
  Transport by TbNT12.1 (in words): did not mediate the uptake
TbNT12.2 [5]
  Transport by TbNT12.2 (in words): did not mediate the uptake
PPT1
  Inhibition of [14C]pentamidine uptake by PFs: did not inhibit

## O=c1[nH]cnc2c1ncn2[C@@H]1O[C@H](CO)[C@@H](O)[C@H]1O [inosine]
TbNT11.1 [2]
  Inhibition of [3H]hypoxanthine uptake by nucleosides: failure

## Nc1nc(N)nc(Nc2ccc([As]3SCC(CO)S3)cc2)n1 (centres unmarked) [melarsoprol]
TbNT11.1 [9]
  EC50: 12.9 µM
TbNT11.1 [10]
  Melarsoprol uptake over background of water injected oocytes: no uptake

## N=C(N)c1ccc(OCCCCCOc2ccc(C(=N)N)cc2)cc1 [pentamidine]
TbNT11.1 [2]
  EC50: 4.8 µM
TbNT11.1 [9]
  EC50: 9.6 µM
TbNT8.1
  Inhibition of hypoxanthine transport by TbNT8.1: did not significantly inhibit
TbNT11.1 [3]; 50 μM [14C]pentamidine, versus water injected oocytes
  Uptake of [14C]pentamidine by TbNT11.1 cRNA-injected oocytes: much more rapidly than control water injected oocytes
TbNT11.1 [3]; read-out: Km for pentamidine uptake by TbNT11.1, Xenopus oocytes, 1 h, n=3
  Km: 407 ± 119 µM
TbNT12.1 [4]; Xenopus oocytes, n=3
  Vmax for pentamidine uptake by TbNT12.1: 21.8 ± 6.5 pmol/h/oocyte
TbNT12.1 [4]; Xenopus oocytes
  Transport by TbNT12.1 (in words): also transport
TbNT12.2 [5]
  Transport by TbNT12.2 (in words): also transport

## O=c1cc[nH]c(=O)[nH]1 [uracil]
TbNT11.1 [2]
  Inhibition of hypoxanthine uptake by pyrimidine nucleobases: did not inhibit

## O=c1[nH]c(=O)c2nc[nH]c2[nH]1 [xanthine]
TbNT11.1 [1]
  TbNT11.1-mediated uptake of radiolabeled substrate: mediated uptake
TbNT11.1 [1]; read-out: Km for uptake by TbNT11.1, substrate saturation, 1 min, Δlmant3[pTbNT11.1], n=3
  Km: 7.2 ± 2.3 µM
TbNT11.1 [3]; 50 μM [14C]pentamidine
  Inhibition of [14C]pentamidine uptake by unlabeled nucleobase: partially inhibited
TbNT12.1 [4]; Xenopus oocytes
  Transport by TbNT12.1 (in words): did not mediate the uptake
TbNT12.2 [5]
  Transport by TbNT12.2 (in words): did not mediate the uptake

## OC[C@H]1O[C@@H](n2cnc3c(O)nc(O)nc32)[C@H](O)[C@@H]1O [xanthosine]
TbNT11.1 [2]
  Inhibition of [3H]hypoxanthine uptake by nucleosides: failure

## TbNT11.1 (Trypanosoma brucei brucei TREU927)
O=c1[nH]cnc2nc[nH]c12
  Km: 141 µM

B1: TbNT12.1 (Trypanosoma brucei brucei TREU927) (protein)
chain: MMLGFESVSEFTVYITFIFFGMSAVVVTTSIFSIPFFFIEYYKYAQGDPNAEAEDQRFWNNVFTYYNATTFLVEFLLTLFMLTNLGRRIPLAVRLGAGLILSILAVFVVIMVTIIKTTETGAKVTIMLVGVINGVAATLCDTGNGALISPFPTKFFSAVVWGVAVCGIITSFFSIVIKASMESNYESMLTQSRIFFGLVVLLEVVSCILLVLLRKNPYAMKYAAEFRYAARERTNACENKESGASNGPAEQDEDSVAIDNNTTKGNVMTVTVDPDTMKDTDQVEDITNSQQMLKAKVSVVLKRVWPMLAAGFLAFSTTFLVYPGVFFAVKTDVPNGWYMTITAAMFHFGDFLSRLLLQFKRLQPSPRYVVVGTFARVFLIIPLVFCVRGIIGGTLLPYILSFLWGLTYGYFGGMALIHTPRTGSLTAAGERSLAANCAVIAILCGLFSGSMLALAVKEGLPQ
[11]
  Km: 161 ± 8 µM

From PMC2630410 (Molecular and biochemical parasitology, 2008)
